{"source": "paper PMC11313180", "about": "(International Journal of Molecular Sciences, 2024)", "key": {"MCF-7 [1]": {"system": "MCF-7", "test": "MTT cell viability assay, MCF-7", "format": "cell-based, human", "details": "for IC50: Homo sapiens", "description": "(§1) MTT assays were performed as previously described. […] After incubation time, medium was replaced by MTT (solution of 5 mg/mL 3-(4,5-dimethylthiazol-2-yl)-2,5-diphenyl-tetrazoliumbromidin in phosphate buffered saline, Serva, Heidelberg, Germany)."}, "T47D [2]": {"system": "T47D", "test": "MTT cell viability assay, T47D", "format": "cell-based, human", "details": "for IC50: Homo sapiens, T47D", "description": "as §1"}, "MDA-MB-231": {"system": "MDA-MB-231", "test": "MTT cell viability assay, MDA-MB-231", "format": "cell-based, human", "details": "for IC50: Homo sapiens", "description": "MTT assays were performed as previously described. Cell numbers plated differed depending on each incubation time: MDA-MB-231 5000 c/w, MCF-7 5000 c/w (72 h) and 3000 c/w (120 h), T-47D 10,000 c/w (72 h) and 5000 c/w /120 h). After incubation time, medium was replaced by MTT (solution of 5 mg/mL 3-(4,5-dimethylthiazol-2-yl)-2,5-diphenyl-tetrazoliumbromidin in phosphate buffered saline, Serva, Heidelberg, Germany). After 10 min (MCF-7), 20 min (MDA-MB-231), and 30 min (T47D) and dissolving in DMSO (VWR, Langenfeld, Germany), absorbance was measured at 544 nm and 690 nm in a FLUOstar microplate reader (BMG LabTech, Offenburg, Germany)."}, "MCF-7 [3]": {"system": "MCF-7", "test": "Cell proliferation by counting Hoechst 33342-stained nuclei, MCF-7", "format": "cell-based, human", "details": "1 µM, 72 h", "description": "(§2) Figure 3 Cell proliferation of MCF-7 (a) and T47D cells (b) measured via Hoechst 33342 staining. […] Shown is one representative experiment out of a series of at least three experiments each performed with 3 replicates. Data are mean ± SD. Statistical comparison was performed using a t-test. Levels of significance: ** (p ≤ 0.01); **** (p ≤ 0.0001). Exe = exemestane. (R)-LA = (R)-α-lipoic acid."}, "T47D [4]": {"system": "T47D", "test": "Cell proliferation by counting Hoechst 33342-stained nuclei, T47D", "format": "cell-based, human", "details": "1 µM, 72 h", "description": "as §2"}, "MCF-7 [5]": {"system": "MCF-7", "test": "Long-term (10 days) live/dead proliferation assay, calcein AM and Hoechst 33342, MCF-7", "format": "cell-based, human", "details": "1 µM exemestane, 1 mM (R)-α-lipoic acid", "description": "(§3) Cells were seeded on day one in 96-well plates. […] Then, cells were stained with calcein AM (Millipore Corporation, Billerica, MA, USA) and Hoechst 33342 (Tocris Bioscience, Bristol, UK) for 30 min and fluorescence images monitored by Leica DMi8 Thunder Imager (Leica Microsystems CMS GmbH, Wetzlar, Germany). Five images per well were monitored randomly. Calcein AM- and Hoechst 33342-stained area of the images (i.e., live proliferating cells) were evaluated."}, "T47D [6]": {"system": "T47D", "test": "Long-term (10 days) live/dead proliferation assay, calcein AM and Hoechst 33342, T47D", "format": "cell-based, human", "details": "1 µM exemestane, 1 mM (R)-α-lipoic acid", "description": "as §3"}, "[7]": {"system": "caspase 3/7 in MCF-7 cells", "test": "Caspase 3/7 activation assay, MCF-7", "format": "cell-based, human", "details": "24 h; 1 µM exemestane, 0.5 mM or 1 mM (R)-α-lipoic acid", "description": "(§4) To analyze the compound-induced activation of capases 3 and 7, the CellEvent caspase 3/7 green detection reagent (Thermo Scientific, Wesel, Germany) was used according to the manufacturer’s instructions. […] After 24 h incubation, medium was removed, and cells were stained with 50 µL of CellEvent caspase 3/7 green detection reagent (2 µM in PBS supplemented with 5% heat-inactivated FBS). Cells were incubated for 30 min at 37 °C in a humidified incubator before imaging by using the Thermo Fisher ArrayScan XTI high content screening (HCS) system with a 10× magnification (Thermo Scientific). Hoechst 33342 was added for nuclei staining."}, "[8]": {"system": "caspase 3/7 in T47D cells", "test": "Caspase 3/7 activation assay, T47D", "format": "cell-based, human", "details": "24 h; 1 µM exemestane, 0.5 mM or 1 mM (R)-α-lipoic acid", "description": "as §4"}, "MCF-7 [9]": {"system": "MCF-7", "test": "Immunoblotting, MCF-7", "format": "cell-based, human", "details": "48 h; 1 mM (R)-α-lipoic acid, 1 µM exemestane", "description": "(§5) A quantity of 20 or 40 µg of total protein as well as, from PageRuler Prestained Protein Ladder, 10–180 kDA (Thermo Scientific, Wesel, Germany), were resolved by SDS-Page (12% polyacrylamide gel) and transferred to polyvinylidene fluoride membrane (Millipore Corporation, Billerica, MA, USA). Blots were incubated with primary antibodies against acetylated a -tubulin (Cat. No. sc-23950), a -tubulin (Cat. No. sc-8035) (Santa Cruz Biotechnology, Heidelberg, Germany), acetyl histone h3 (Cat. No. 39140) and histone H3 (Cat. No. NB100-1669), ß-actine (Cat. No. sc-47778), p21 (AF1047), c-myk (Cat. No. MAB3696), APAF1 (Cat. No. MAB868), BIM (Cat. No. NBP1-76936), FOXO1 (Cat. No. C29H4), BCL-2 (Cat. No. AF810), and survivin (Cat. No. AF886). After another one-hour incubation with the appropriate HRP-conjugated secondary antibody, proteins were visualized by Intas Imager (Intas, Göttingen, Germany) using luminol reagent (Santa Cruz Biotechnology, Heidelberg, Germany)."}, "T47D [10]": {"system": "T47D", "test": "Immunoblotting, T47D", "format": "cell-based, human", "details": "48 h; 1 mM (R)-α-lipoic acid, 1 µM exemestane", "description": "as §5"}, "MCF-7 cells": {"system": "MCF-7 cells", "parameters": "method as in PMID 25738757", "details": "ref [30]; read-out: IC50 in MCF-7 cells, literature; cited from earlier work"}}, "note": "Like-named read-outs stand apart in the source and are kept apart here.", "data": [{"smiles": "C=C1C[C@@H]2[C@H](CC[C@]3(C)C(=O)CC[C@@H]23)[C@@]2(C)C=CC(=O)C=C12", "note": "[exemestane]", "values": [{"measurement": "inhibition of cell viability, MCF-7", "setting": "MCF-7 [1]; 1 µM alone, 120 h MTT", "result": 10.2, "unit": "%"}, {"measurement": "increase in potency by prolongation of incubation time, MCF-7", "setting": "MCF-7 [1]; 120 h versus 72 h MTT", "result": 1.8, "unit": "fold"}, {"measurement": "IC50", "setting": "MCF-7 [1]; MCF7, 72 h, read-out: IC50 MCF-7, 72 h MTT assay", "result": "29.1 ± 1.3", "unit": "µM"}, {"measurement": "IC50", "setting": "MCF-7 [1]; MCF7, 72 h, read-out: IC50 of exemestane, MCF-7 (Figure 2a)", "result": 42.6, "unit": "µM"}, {"measurement": "IC50", "setting": "MCF-7 [1]; MCF7, 120 h, read-out: IC50 of exemestane, MCF-7 (Figure 4a)", "result": 16.9, "unit": "µM"}, {"measurement": "IC50", "setting": "MCF-7 [1]; MCF7, 120 h, IC50 ± SEM, read-out: IC50 MCF-7, 120 h MTT assay", "result": "16.1 ± 0.84", "unit": "µM"}, {"measurement": "inhibition of cell viability, T47D", "setting": "T47D [2]; 1 µM alone, 120 h MTT", "result": "no"}, {"measurement": "increase in potency by prolongation of incubation time, T47D", "setting": "T47D [2]; 120 h versus 72 h MTT", "result": 1.8, "unit": "fold"}, {"measurement": "IC50", "setting": "T47D [2]; 72 h, read-out: IC50 T-47D, 72 h MTT assay", "result": "50.6 ± 2.04", "unit": "µM"}, {"measurement": "IC50", "setting": "T47D [2]; 72 h, read-out: IC50 of exemestane, T-47D (Figure 2b)", "result": 39.2, "unit": "µM"}, {"measurement": "IC50", "setting": "T47D [2]; 120 h, read-out: IC50 of exemestane, T-47D (Figure 4b)", "result": 24.7, "unit": "µM"}, {"measurement": "IC50", "setting": "T47D [2]; 120 h, IC50 ± SEM, read-out: IC50 T-47D, 120 h MTT assay", "result": "28.7 ± 0.75", "unit": "µM"}, {"measurement": "less potent in MDA-MB-231 compared to MCF-7", "setting": "MDA-MB-231; 72 h MTT IC50 ratio", "result": 3, "unit": "fold"}, {"measurement": "less potent in MDA-MB-231 compared to T47D", "setting": "MDA-MB-231; 72 h MTT IC50 ratio", "result": 1.8, "unit": "fold"}, {"measurement": "increase in potency by prolongation of incubation time, MDA-MB-231", "setting": "MDA-MB-231; 120 h versus 72 h MTT", "result": 1.7, "unit": "fold"}, {"measurement": "IC50", "setting": "MDA-MB-231; MDA-MB-231, 72 h, read-out: IC50 MDA-MB-231, 72 h MTT assay", "result": "89.4 ± 2.86", "unit": "µM"}, {"measurement": "IC50", "setting": "MDA-MB-231; MDA-MB-231, 120 h, IC50 ± SEM, read-out: IC50 MDA-MB-231, 120 h MTT assay", "result": "53.3 ± 3.62", "unit": "µM"}, {"measurement": "decrease of the number of nuclei, MCF-7", "setting": "MCF-7 [3]", "result": "around 37%"}, {"measurement": "decrease of the number of nuclei, T47D", "setting": "T47D [4]", "result": "around 37%"}, {"measurement": "proliferation and doubling time over 10 days, MCF-7", "setting": "MCF-7 [5]", "result": "difference between the untreated control and 1 µM exemestane is small"}, {"measurement": "proliferation and doubling time over 10 days, T47D", "setting": "T47D [6]", "result": "doubling time was not different between exemestane treatment and untreated condition"}, {"measurement": "caspase 3/7 activation, MCF-7", "setting": "[7]", "result": "no caspase 3/7 activation"}, {"measurement": "caspase 3/7 activation, T47D", "setting": "[8]", "result": "no caspase 3/7 activation"}, {"measurement": "expression of survivin and c-myk, MCF-7", "setting": "MCF-7 [9]", "result": "not affected"}, {"measurement": "expression of survivin and c-myk, T47D", "setting": "T47D [10]", "result": "not affected"}, {"measurement": "IC50", "setting": "MCF-7 cells", "result": 30, "unit": "µM"}]}]}
